Measured values as given in patent US5608095A, “Alkyl-4-silyl-phenols and esters thereof as antiatherosclerotic agents” (Hoechst Marion Roussel, Inc., priority 1996, dated 1997).
Read-outs that look alike come from different tables or passages of the source.

Assays:
VCAM-1 [1] = test: Cell surface ELISA for VCAM-1 in human aortic smooth muscle cells (HASMC), interleukin-4 induced; assay type: cell-based; settings: 50 μm; for VCAM-1 (Avg.) % inh.: average of HSMC-1 to HSMC-3; for HSMC-1 % inh. of VCAM-1: experiment HSMC-1, interleukin-4, about 20 hr; for HSMC-2 % inh. of VCAM-1: experiment HSMC-2, interleukin-4, about 20 hr; for HSMC-3 % inh. of VCAM-1: experiment HSMC-3, interleukin-4, about 20 hr
Protocol: (§1) Cell Surface ELISA for VCAM-1/ICAM-1
(§2) Proliferating human umbilical vein endothelial cells (HUVEC) or human aortic smooth muscle cells (HASMC) from Clonetics (San Diego, Calif.) were plated onto 96-well plates in 100 μL medium per well at 20,000 cells per cm^2. The cultures were maintained in growth medium (EGM or SMGM2, Clonetics, San Diego, Calif.) for two days prior to addition of cytokines or drugs. Cytokines plus or minus compounds were added for 20 to 24 hours prior to analysis for adhesion molecule levels. Tumor necrosis factor (Genzyme, Cambridge, Mass.) was added to cultures at 500-1000 units/mL. Interleukin-4 (GIBCO-BRL, Gaithersburg, Md.) was added to cultures at 100-200 pg/mL. (Additions were made by transferring 100 [μL of cytokines plus compounds serially diluted on a separate 96-well plate into the plates containing cells. The medium on the cultures was not exchanged prior to addition of effectors). The culture medium was removed, and the monolayers were washed twice with Hanks buffered saline solution (HBSS) at room temperature. The primary antibody (anti-human VCAM-1 from Upstate Biotechnology, Inc., Lake Placid, N.Y. or anti-human ICAM-1 from Immunotech, Inc., Westbrook, Me.) was added to each well (1 μg/mL in HBSS plus 5% newborn calf serum, GIBCO-BRL, Gaithersburg, Md.) and incubated at 37° C. for 1 hr. The wells were washed twice with HBSS, then 100 μL of a 1/1000 dilution of goat anti-mouse IgG conjugated to horse radish peroxidase (BioRad, Hercules, Calif.) in HBSS plus 5% newborn calf serum was added to each well and incubated for 1 hr at 37° C. The wells were washed three times with HBSS, then 100 μL of TMB substrate (BioRad, Hercules, Calif.) was added to each well. The reaction was stopped after blue color developed by addition of 50 μL of 1N H2 SO4. Absorbance is measured at 450 nm with a plate reader. IC50 values were determined from curves of absorbance values obtained from serial dilutions of compounds (dissolved in dimethyl sulfoxide).
(§3) The IC50 value is defined as the drug concentration that inhibits the cytokine-induced adhesion molecule expression by 50%. Maximal values for adhesion molecule expression in cytokine-induced cultures was […] the basal level of adhesion molecule expression (minus cytokines) in the cultures to determine the level of induction. […] Each drug concentration was tested in quadruplicate wells. Single point tests of compounds at 50 μM were assayed as described for IC50 determinations, except that the data represent the level of inhibition without correction for basal expression. (Basal adhesion molecule expression was 10-20% of the total induced expression). Table 1 summarizes the ability of various compounds of this invention to inhibit VCAM-1 using human aortic smooth muscle cells (HASMC). In these experiments, the cells were coincubated with interleukin-4 and the compounds listed about 20 hr before assaying cell surface VCAM-1 levels. Each column represents a separate experiment.

VCAM-1 [2] = test: Cell surface ELISA for VCAM-1 in human umbilical vein endothelial cells (HUVEC), TNF-alpha induced; assay type: cell-based; settings: 50 μM, average of three runs
Protocol: as §1, §2, §3
(§4) In these experiments, the cells were coincubated with tumor necrosis factor-alpha along with the indicated compounds about 20 to 24 hr before assaying cell surface adhesion molecule expression.

ICAM-1 = test: Cell surface ELISA for ICAM-1 in human umbilical vein endothelial cells (HUVEC), TNF-alpha induced; assay type: cell-based; settings: 50 μM, average of two runs, numbers in parentheses represent negative values
Protocol: as §1, §2, §3, §4

[3] = system: serum cholesterol, LDL, HDL, triglycerides; test: Serum lipids and lipoprotein cholesterol in cholesterol-fed female New Zealand White rabbits; assay type: in vivo; settings: Oryctolagus cuniculus, po, 168 h, rabbit serum, diet 0.26%, 7 days
Protocol: (§5) Five independent experiments were performed in the following manner. […] Female New Zealand White rabbits (Hazelton, ~2.0-2.3 kg) were fed 0.2% cholesterol enriched rabbit chow (Purina #5322) with or without 0.4% MDL compound (except, MDL 108,804 at 0.26% and MDL 103,491 repeated at 0.6%). The MDL compounds were solubilized in 100% ethanol. MDL 108,208 was not soluble in 100% ethanol, but it was soluble in diethyl ether:ethanol (3:2 by volume). The chow was sprayed with the MDL mixtures and allowed to dry overnight in a chemical fume hood. Control chow was sprayed with ethanol. Rabbits were fed 100 grams food per day for 7 days (0.6% MDL 103,491 were fed for 14 days); water was available ad libitum. On day 7, rabbits (fasted overnight) were bled (~2 mL) from marginal ear vein; 0.6% MDL 103,491 treated rabbits were tested on day 14. They were euthanized by carbon dioxide overdose. The total body and liver weights were recorded in grams. Food consumption was recorded as grams.cndot.day^-1 .cndot.rabbit^-1. Aliquots of fresh serum were used for clinical chemistries, lipoprotein cholesterol determination, thiobarbituric acid reactive substances (TBARS) and compound and metabolite concentrations in serum. Livers (~5 gram aliquots) were frozen at -20° C. for compound and metabolite concentration determination at a later time.
Blood was allowed to clot at room temperature for 30 minutes. Serum was obtained after centrifugation for 10 min at 5° C. at 3000 rpm in a Beckman GPKR centrifuge with a GH rotor. Fresh serum was analyzed by a COBAS MIRA autoanalyzer (Roche Diagnostics) using Roche diagnostic reagents for total cholesterol (CHOL, kit #44334) and triglyceride (TG, kit #44120). Cholesterol and triglycerides were calculated as mg/dL.
Lipoprotein fractions (very low density lipoprotein, VLDL, low density lipoprotein, LDL and high density lipoprotein, HDL) were separated on a Sepharose 6HR column (1×30 cm, Pharmacia) attached to a Waters Powerline HPLC system. Fifty μL of serum were injected onto the column and eluted with phosphate buffered saline, pH 7.4, at a flow rate of 0.5 mL/min. Cholesterol reagent (Roche Diagnostics, kit #44334, diluted with 20 mL water and then with 20 mL of 0.9% saline) was added at 0.2 mL/min to the post column eluant and incubated in a knitted PFTE Kratos reaction coil (Applied Biosystems) at 37° C. for 5 min. Absorbance was measured at 500 nm. The lipoprotein subfractions were quantitated as follows: [formula]

[4] = system: oxidation of serum lipids; test: TBARS assay, serum of cholesterol-fed rabbits; assay type: in vivo, female New Zealand White rabbits; settings: Oryctolagus cuniculus, po, 168 h; rabbit serum, diet 0.26%, 7 days; read-out: TBARS, percent of control
Protocol: as §5
TBARS are a qualitative indication of the oxidation of lipids in a sample. In this assay the oxidation of serum lipids is initiated with CuSO4, resulting in the formation of aldehydes, such as malondialdehyde (MDA). Upon incubation with thiobarbituric acid, the absorbance of the aldehydes can be detected at 530-540 nm. TBARS values which are lower than control serum values indicate the relative ability of a compound to inhibit the oxidation. TBARS were measured as follows: 50 μL of serum were mixed with 50 μL of 0.9% saline and 400 μL of a 5 mM CuSO4 solution and incubated at 37° C. for 5 hr. The reactions were stopped by addition of 1.0 mL of 20% trichloroacetic acid. Then 1.0 mL of 0.67% thiobarbituric acid in 0.05N sodium hydroxide was added, mixed, and the samples incubated for 30 min at 90° C. Samples were centrifuged briefly to pellet undissolved material, and the supernatants were transferred to a 96-well microtiter plate. Absorbances were measured at 540 nm using a Biotek model EL311 microplate reader. The nmoles of MDA produced were calculated from a standard curve of 0 to 10 nmoles of MDA prepared from malonaldehyde bis(dimethylacetal). Serum samples from treated rabbits were compared to serum samples from control rabbits that received no MDL compound.

[5] = Food consumption, body and liver weight in cholesterol-fed rabbits; assay type: in vivo, female New Zealand White rabbits; settings: diet 0.26%, 7 days
Protocol: as §5

[6] = HPLC quantitation of compound and metabolite concentration in rabbit serum and liver; assay type: in vivo, female New Zealand White rabbits; settings: diet 0.26%, 7 days
Protocol: as §5
Serum and liver concentrations of parent compounds and the metabolites, bisphenol and diphenoquinone, were determined by reverse phase HPLC using a Waters 990 Powerline system. Livers (1 gram) were homogenized with 5.0 mL PBS, pH 7.4, using a Polytron tissue homogenizer at setting 5 for 20-30 seconds. Serum or liver homogenates were extracted as follows: 100 μL of either serum or homogenate were added to 2.0 mL diethyl ether:ethanol (3:1) while vortexing the tube. The sample tubes were capped and centrifuged for 10 min at 5° C. at 3500 rpm in a Beckman GPKR centrifuge with a GH 3.7 rotor. The supernatants were transferred to clean tubes and dried under N2. Samples were reconstituted with 200 μL of acetonitrile:hexane:0.1M ammonium acetate (90:6.5:3.5, by vol.). Then, 100 μL were injected onto a Waters Deltapak C18-300 Å column, and eluted with an 83% acetonitrile:17% water mobile phase at a flow rate of 1.5 mL/min. Absrobances at the wavelengths of 240, 254, and 420 nm were recorded. Compound concentrations were calculated from known quantities of authentic parent compounds after correction for recovery; the range of recovery from spiked samples was 40 to 100%. The lowest detectable limit for this class of compounds was ~0.5 μg/mL. Concentrations were calculated as μg/mL of serum and μg/g of liver.

Compound | VCAM-1 (Avg.) % inh. (VCAM-1 [1]) [%] | HSMC-1 % inh. of VCAM-1 (VCAM-1 [1]) [%] | HSMC-2 % inh. of VCAM-1 (VCAM-1 [1]) [%] | HSMC-3 % inh. of VCAM-1 (VCAM-1 [1]) [%] | VCAM-1 % inh. (VCAM-1 [2]) [%] | ICAM-1 % inh. (ICAM-1) [%] | response vs control in vivo at 0.26 % ([3]; read-out: HDL cholesterol, percent of control) [%] | response vs control in vivo at 0.26 % ([3]; read-out: LDL cholesterol, percent of control) [%] | response vs control in vivo at 0.26 % ([3]; read-out: TRIG (triglycerides), percent of control) [%] | response vs control in vivo at 0.26 % ([3]; read-out: chol tot. (total cholesterol), percent of control) [%] | response vs control in vivo at 0.26 % [4] [%] | food (grams eaten per day per rabbit), percent of control [5] [%] | body wt., percent of control ([5]; rabbit) [%] | lw/bw (liver weight/body weight), percent of control ([5]; rabbit) [%] | Liver Parent = parent compound concentration ([6]; rabbit liver) [µg/g] | Serum Parent = parent compound concentration ([6]; rabbit serum) [µg/mL]
Cc1cc(O)c(C)c(C)c1OC[Si](C)(C)c1ccccc1 [MDL 103,653, 2,3,5-Trimethyl-4-[(dimethylphenylsilyl)methyloxy]phenol] | 56.4 | 63.1 | 54.0 | 52.0 | 37.7 | 78.5 |  |  |  |  |  |  |  |  |  | 
CC(C)(C)c1cc(SC[Si](C)(C)C)cc(C(C)(C)C)c1OC(=O)CCC(=O)O [MDL 104,863, 2,6-Di-t-butyl-4-[(trimethylsilyl)methylthio]phenol succinic acid ester] | 54.8 | 56.5 | 52.0 | 56.0 | 44.3 | 53 |  |  |  |  |  |  |  |  |  | 
CC(C)(C)c1cc(OC[Si](C)(C)Cc2ccccc2)ccc1O [MDL 108,804, 2-t-butyl-4-[(dimethylbenzylsilyl)methyloxy]phenol] |  |  |  |  |  |  | 109 | 82 | 143 | 91 | 49 | 100 | 101 | 96 | 0 | 0
